Results taken from PMC2009384, “The carcinogenicity of polycyclic hydrocarbon epoxides in newborn mice” (British Journal of Cancer, 1975).

Key:
[1] = system: newborn mice; details: ref Roe and Walters, 1967; cited from earlier work
[2] = system: newborn Swiss mice; test: Experiment I: carcinogenicity in newborn mice, benz(a)anthracene vs its K region epoxide (s.c. injection, tumour incidence to 70-75 weeks)
Excerpt: Br. J. Cancer (1975) 31, 182 THE CARCINOGENICITY OF POLYCYCLIC HYDROCARBON EPOXIDES IN NEWBORN MICE P. L. GROVER, P. SIMS, B. C. V. MITCHLEY AND F. J. C. ROE From the Chester Beatty Research Institute, Institute of Cancer Research, Royal Cancer Hospital, Fulham Road, London, SW3 6JB Received 9 August 1974. […] THE HYPOTHESIS that the carcino- genicity of polycyclic hydrocarbons is associated with the formation of epoxide metabolites (Grover, Hewer and Sims, 1971, 1972; Keysell et al., 1973) is sup- ported by some experimental evidence but remains unproven. […] The epoxides can also act as alkylating agents (Grover and Sims, 1970) and as mutagens (Ames, Sims and Grover, 1972; Huberman et al., 1971; Cookson, Sims and Grover, 1971; Fahmy and Fahmy, 1973). […] The newborn mouse, which is susceptible to carcinogenic polycyclic hydrocarbons (Roe, Rowson and Salaman, 1961; Roe, Mitchley and Walters, 1963; Walters and Roe, 1964, 1966) can be considered as a convenient source of several types of rapidly dividing cells. Consequently we have tested the K region epoxides derived from phenanthrene, benz(a)anthracene, 7-methylbenz(a)anthracene, dibenz(a,h)- anthracene, chrysene and 3-methylchol- anthrene, together with some of the CARCINOGENICITY OF POLYCYCLIC HYDROCARBON EPOXIDES IN MICE 183 parent hydrocarbons, for carcinogenicity using newborn mice. This paper presents the results that were obtained in these experiments. MATERIALS AND METHODS The polycyclic hydrocarbon epoxides, phenanthrene 9,10-oxide, benz(a)anthracene 5,6-oxide, 7-methylbenz(a)anthracene 5,6- oxide, dibenz(a,h)anthracene 5,6-oxide, chry- sene 5,6-oxide and 3-methylcholanthrene 11,12-oxide were prepared from the parent hydrocarbons (Newman and Blum, 1964; Boyland and Sims, 1965; Sims 1966). Two experiments were undertaken fol- lowing similar protocols. For each experi- ment Swiss mice from a specific pathogen- free colony were time mated so as to produce a large number of litters over the course of 2 or 3 days. […] Test compounds were suspended in poly- ethylene glycol (PEG) 400 and injections of 0-02 ml of the suspension were given by introducing a 25 gauge hypodermic needle through the skin near the root of the tail and threading it subcutaneously to deliver the injected material in the interscapular region. Injections were given to every mouse on the first day or first 3 days of life. The details of treatments and numbers of mice of each sex in each group are shown in Table I (Experiment I) and Table II (Ex- periment II). Surviving mice were weaned when they w ere 21 days old. Thereafter, males and females w ere separated and housed 6 per cage in metal boxes. A mixture of sawdust and wood shavings was used as bedding. The mice were fed on a standard cubed diet (Formulation 86 from C. Holdman and Sons (Plow co Feeds), Byers Lane, South Godstone, Surrey) and water was given ad libitum. Mice were inspected daily, and at weekly intervals they were weighed and palpated for tumours and other lesions. […] The experiment was terminated when surviving mice were between 70 and 75 weeks old. A full routine post- mortem examination, which included disten- sion of the urinary bladder with fixative, was carried out. The number of lesions thought to be neoplasms and the size of the largest such lesion in each organ affected were recorded. All tissues with suspected neoplasms were fixed in Bouin's solution. Haematoxylin and eosin stained 5 µm paraffin wax sections were prepared and examined microscopically. RESULTS The results of the two experiments in terms of tumour incidence are sum- marized in […].

[3] = Groups A, B and C, 3 x 200, 100, 50 µg s.c.
[4] = females, 50 µg per treatment s.c. on Days 0, 1 and 2
[5] = females, 50 µg per treatment s.c. on Days 0, 1 and 2 in PEG 400
[6] = females, 100 µg per treatment s.c. on Days 0, 1 and 2
[7] = females, 100 µg per treatment s.c. on Days 0, 1 and 2 in PEG 400
[8] = females, 200 µg per treatment s.c. on Days 0, 1 and 2
[9] = females, 200 µg per treatment s.c. on Days 0, 1 and 2 in PEG 400
[10] = males, 50 µg per treatment s.c. on Days 0, 1 and 2
[11] = males, 50 µg per treatment s.c. on Days 0, 1 and 2 in PEG 400
[12] = males, 100 µg per treatment s.c. on Days 0, 1 and 2
[13] = males, 100 µg per treatment s.c. on Days 0, 1 and 2 in PEG 400
[14] = males, 200 µg per treatment s.c. on Days 0, 1 and 2
[15] = males, 200 µg per treatment s.c. on Days 0, 1 and 2 in PEG 400

c1ccc2c(c1)ccc1ccccc12 [phenanthrene]
inactive: activity in newborn mice [1]

c1ccc2cc3c(ccc4ccccc43)cc2c1 [Benz(a)anthracene, reference compound]
9: No. of mice examined at p.m. at termination of experiment (70th-75th week) with liver tumours [2, 10]
11: No. of mice examined at p.m. at termination of experiment (70th-75th week) with multiple liver tumours [2, 12]
dose related effect: effect on the incidence of liver tumours in male mice [2, 3] | effect on the incidence of lung tumours in mice of both sexes [2, 3]
3: No. of mice examined at p.m. at termination of experiment (70th-75th week) with multiple lung tumours [2, 4] | No. of mice examined at p.m. from 50th-70th week with liver tumours [2, 10] | No. of mice examined at p.m. at termination of experiment (70th-75th week) with multiple lung tumours [2, 12]
2: No. of mice examined at p.m. at termination of experiment (70th-75th week) with liver tumours [2, 4] | No. of mice examined at p.m. at termination of experiment (70th-75th week) with multiple lung tumours [2, 6] | No. of mice examined at p.m. from 50th-70th week with lung tumours [2, 6] | No. of mice examined at p.m. at termination of experiment (70th-75th week) with liver tumours [2, 8] | No. of mice examined at p.m. at termination of experiment (70th-75th week) with multiple lung tumours [2, 10]
15: No. of mice examined at p.m. at termination of experiment (70th-75th week) with liver tumours [2, 12] | No. of mice examined at p.m. at termination of experiment (70th-75th week) with liver tumours [2, 14] | No. of mice examined at p.m. at termination of experiment (70th-75th week) with multiple liver tumours [2, 14] | No. of survivors at 70 weeks [2, 15]
7: No. of mice examined at p.m. at termination of experiment (70th-75th week) with lung tumours [2, 4]
1: No. of mice examined at p.m. at termination of experiment (70th-75th week) with multiple liver tumours [2, 4] | No. of mice examined at p.m. from 50th-70th week with lung tumours [2, 4] | No. of mice examined at p.m. at termination of experiment (70th-75th week) with multiple liver tumours [2, 8] | No. of mice examined at p.m. at termination of experiment (70th-75th week) with other tumours [2, 8] | No. of mice examined at p.m. from 50th-70th week with lung tumours [2, 10] | No. of mice examined at p.m. at termination of experiment (70th-75th week) with other tumours [2, 12] | No. of mice examined at p.m. from 50th-70th week with lung tumours [2, 12] | No. of mice examined at p.m. from 50th-70th week with liver tumours [2, 14] | No. of mice examined at p.m. from 50th-70th week with lung tumours [2, 14]
25: No. of survivors at 50 weeks [2, 5] | No. of survivors at 70 weeks [2, 11] | No. of survivors at 50 weeks [2, 13]
29: No. of survivors at 50 weeks [2, 11]
0: No. of mice examined at p.m. at termination of experiment (70th-75th week) with other tumours [2, 4] | No. of mice examined at p.m. from 50th-70th week with liver tumours [2, 4] | No. of mice examined at p.m. from 50th-70th week with other tumours [2, 4] | No. of mice examined at p.m. at termination of experiment (70th-75th week) with liver tumours [2, 6] | No. of mice examined at p.m. at termination of experiment (70th-75th week) with multiple liver tumours [2, 6] | No. of mice examined at p.m. at termination of experiment (70th-75th week) with other tumours [2, 6] | No. of mice examined at p.m. from 50th-70th week with liver tumours [2, 6] | No. of mice examined at p.m. from 50th-70th week with other tumours [2, 6] | No. of mice examined at p.m. from 50th-70th week with liver tumours [2, 8] | No. of mice examined at p.m. from 50th-70th week with lung tumours [2, 8] | No. of mice examined at p.m. from 50th-70th week with other tumours [2, 8] | No. of mice examined at p.m. at termination of experiment (70th-75th week) with other tumours [2, 10] | No. of mice examined at p.m. from 50th-70th week with other tumours [2, 10] | No. of mice examined at p.m. from 50th-70th week with other tumours [2, 12] | No. of mice examined at p.m. at termination of experiment (70th-75th week) with other tumours [2, 14] | No. of mice examined at p.m. from 50th-70th week with other tumours [2, 14]
10: No. of mice examined at p.m. at termination of experiment (70th-75th week) with lung tumours [2, 8] | No. of mice examined at p.m. at termination of experiment (70th-75th week) with multiple lung tumours [2, 8]
13: No. of survivors at 70 weeks [2, 7]
5: No. of mice examined at p.m. at termination of experiment (70th-75th week) with lung tumours [2, 6] | No. of mice examined at p.m. at termination of experiment (70th-75th week) with lung tumours [2, 10] | No. of mice examined at p.m. at termination of experiment (70th-75th week) with multiple liver tumours [2, 10] | No. of mice examined at p.m. at termination of experiment (70th-75th week) with lung tumours [2, 12]
21: No. of survivors at 70 weeks [2, 5]
18: No. of survivors at 50 weeks [2, 9] | No. of survivors at 70 weeks [2, 9] | No. of survivors at 50 weeks [2, 15]
19: No. of survivors at 70 weeks [2, 13]
17: No. of survivors at 50 weeks [2, 7]
4: No. of mice examined at p.m. from 50th-70th week with liver tumours [2, 12] | No. of mice examined at p.m. at termination of experiment (70th-75th week) with lung tumours [2, 14] | No. of mice examined at p.m. at termination of experiment (70th-75th week) with multiple lung tumours [2, 14]
